Measured values: patent US20250127695A1, “Use of Branched Medium-Chain Glycerol Ethers as Active Antidandruff Ingredients” (Henkel AG & Co. KGaA, priority 2022, published 2025)

Experiments:
[1] = system: barrier markers (transglutaminase1, filaggrin, decorin, involucrin, and loricrin); assay: gene expression of barrier markers in in vitro tests on artificial skin models; type: cell-based; details: various concentrations, FIG. 2
Description: The gene expression of all investigated barrier markers (transglutaminase1, filaggrin, decorin, involucrin, and loricrin) was reduced by the treatment.

Malassezia furfur = assay: quantitative suspension test of Malassezia furfur; type: cell-based; details: incubation ≤60 min at 37° C. in a buffer solution, FIG. 1
Method: The efficacy against dandruff was investigated by is of a suspension test. Various formulations were incubated for a certain time (≤60 min) together with the yeast Malassezia furfur, which was present in cell counts of 10^5-10^6 CFU/mL, at 37° C. in a buffer solution.
After incubation, the cell count of the yeast was determined by is of a culture method (growth on Sabouraud Agar). The difference between this value and the respective initial value is a measure of the microbicidal efficacy of the respective anti-dandruff compound.
One of the causes of dandruff formation is the excessive growth of various microorganisms on the scalp. Yeasts of the genus Malassezia play a particularly important role here. The growth-inhibiting effect of various anti-dandruff compounds in this experiment therefore indicates anti-dandruff efficacy (FIG. 1).

| SMILES | gene expression of barrier markers (transglutaminase1, filaggrin, decorin, involucrin, loricrin) [1] | release of interleukin 8 (inflammatory marker) (interleukin 8) | microbicidal efficacy against Malassezia (cell count of the yeast after incubation vs initial value) (Malassezia furfur) |
| --- | --- | --- | --- |
| Cc1cc(CC(C)CC(C)(C)C)n(O)c(=O)c1.NCCO (stereo not shown) [Octopirox, Piroctone Olamine] | reduced | does not negatively influence the release of inflammatory markers |  |
| CCCCCCC(C)OCC(O)CO (stereo not shown) [methylheptyl glycerin] | did not lead to a significant decrease in gene expression |  | killing effect on the Malassezia fungus |
